Laboratory results published in article PMC13224100, “Esterase-Responsive Mitochondria-Targeted Hydropersulfide Donors Mitigate Doxorubicin Cardiotoxicity While Preserving Anticancer Activity” (Angewandte Chemie (International ed. in English), 2025).

Assays:
Format in all cases: cell-based
HepG2 cells [1] = test: Effect of RSSH donors on anticancer activity of DOX, CCK-8; conditions: 4 h pretreatment, then 24 h co-treatment with DOX 5 μM
Protocol: (§1) We next evaluated the effects of RSSH donors on DOX activity in three representative cancer cell lines: triple-negative breast cancer MDA-MB-468, ER-positive breast cancer MCF-7, and hepatocellular carcinoma HepG2.
(§2) Figure 5. Effect of RSSH donors on anticancer activity of DOX in cancer cells. MDA-MB-468, MCF-7, and HepG2 cells were pretreated with APT-1 or its mitochondria-targeted analog APT-1-TPP for 4 h, followed by co-treatment with DOX (5 μM for MDA-MB-468 and HepG2; 15 μM for MCF-7) for an additional 24 h. Results are presented as mean ± SEM, n = 3; *p < 0.05, **p < 0.01, ***p < 0.001, ****p < 0.0001. Ctl = vehicle-treated group (0.01% DMSO in medium). […]
(§3) Cytoprotective Effects of RSSH Donors against Doxorubicin Toxicity
(§4) Cytoprotective studies were performed as previously described.[8] Briefly, H9c2 cells, HepG2 cells, MDA-MB-468 cells, and MCF-7 cells were seeded at a density of 7 x 10^3 cells/well. […] Additionally, in the vehicle control group, cells were treated with medium (DMEM with 10% FBS) containing 0.01% DMSO only. The cells were then further incubated for an additional 4 h before being treated with DOX (10 μL/well, with final concentration of 5 μM). After a 24 h co-incubation with DOX, each well was carefully washed three times with PBS (pH 7.4) and 100 μL o f F B S-free medium containing 10% v/v CCK-8 (Dojindo) was added. The plates were then incubated for 1-2 h before measuring absorbance at […]
(§5) The relative % cell viability was calculated as 100 times the ratio of Abs450 (RSSH donor + DOX-exposed) to Abs450 (vehicle, non-DOX-exposed). Each treatment condition was performed in 6 technical replicates per biological replicate, and the experiment was independently repeated three times (n = 3 biological replicates). Data are presented as mean ± SEM. […]

MCF-7 cells = test: as above; conditions: 4 h pretreatment, then 24 h co-treatment with DOX 15 μM
Protocol: as §1, §2, §3, §4, §5

MDA-MB-468 cells = test: as above; conditions: 4 h pretreatment, then 24 h co-treatment with DOX 5 μM
Protocol: as §1, §2, §3, §4, §5

HepG2 cells [2] = test: Mitochondrial membrane potential (TMRM) under DOX; conditions: donor 25 μM, 4 h pretreatment, DOX 5 μM 24 h
Protocol: Figure 6. a) Basal sulfane sulfur (SS) levels in H9c2 cardiomyocyte, MDA-MB-468, MCF-7, and HepG2 cell lines as detected by SSP4 fluorescence. b) Representative images and c) basal levels of mitochondrial membrane potential (MMP) in H9c2 and cancer cells (MDA-MB-468, MCF-7, and HepG2). d) Impact of APT-1 (25 μM) or APT-1-TPP (25 μM) on MMP in DOX (5 μM)-treated (d) H9c2 and e) HepG2 cells. Impact of APT-1 (25 μM) and APT-1-TPP (25 μM) on ATP levels in DOX (5 μM)-treated f) H9c2 and g) HepG2 cells. Results are expressed as mean ± SEM, n = 3–6; *P < 0.05, **P < 0.01, ***P < 0.001, ****P < 0.0001. Significances in (a) and (c) are presented with respect to H9c2 cells.
We then examined how RSSH donors influence MMP during DOX exposure. As expected, DOX alone induced mitochondrial depolarization in H9c2 cells, reducing MMP to ca. 50% of control (Figure 6d). […] To complement these observations, we quantified intracellular ATP levels as a functional readout of mitochondrial activity. […]
Mitochondrial Membrane Potential Measurements
Mitochondrial membrane potential was measured using Image-iT™ TMRM Reagent (Cat#I34361, Invitrogen, USA) according to the manufacturer's protocols. […]
The cells were incubated for an additional 24 h. After completion of treatment, cells were washed with a warm clear DMEM medium (with 10% FBS) and incubated in culture media containing TMRM (working solution 100 nM) for 30 min at 37 °C. Cells were then washed with a warm clear FBS-free DMEM medium (3 times) before imaging. Images were obtained with Zeiss LSM 800 with AiryScan Confocal (λex = 548 nm, λem = 573 nm). During each experiment, 6 field images were obtained for each experimental group. Images were analyzed using Image J software, and all cells in each image were selected for fluorescence intensity measurement (cell-free space was also measured as blank). H9c2 signal intensity was set to 100% and signal intensity for all the other cell lines was shown as a percentage of that of H9c2.
The experiments were independently repeated three times (n = 3 biological replicates). Data are […]
Figure S24. Representative TMRM images for mitochondrial membrane potential (MMP) in H9c2 and HepG2 cells with APT-1 and APT-1-TPP treatment under DOX stress. Ctl = vehicle (medium with 0.01% […]
(1 picture or pasted object on this page, not shown here)

| Compound | effect on DOX cytotoxicity (HepG2 cells [1]) | effect on DOX cytotoxicity (MCF-7 cells) | effect on DOX cytotoxicity (MDA-MB-468 cells) | effect on DOX-induced mitochondrial depolarization (HepG2 cells [2]) | concentration that modestly enhanced DOX's anticancer activity (MDA-MB-468 cells) |
| --- | --- | --- | --- | --- | --- |
| COC(=O)C(NC(C)=O)C(C)(C)SSC(=O)N(C)CCOC(C)=O (stereo not drawn) [APT-1] | no protective effect | did not blunt DOX cytotoxicity | did not provide cytoprotection | neither donor prevented DOX-induced mitochondrial depolarization |  |
| CC(=O)NC(C(=O)N(C)CCC[P+](c1ccccc1)(c1ccccc1)c1ccccc1)C(C)(C)SSC(=O)N(C)CCOC(C)=O (stereo not drawn) [APT-1-TPP] | potentiated DOX cytotoxicity in a dose-dependent manner | synergistically enhanced its activity | no protective effect | further exacerbated MMP loss | ≥ 100 µM |
